Values of other authors as cited in US10638990B2, “Sunscreen compositions with improved water resistance of UVA sunscreen active agents” (Edgewell Personal Care Brands, LLC, priority 2015, dated 2020).

details: calculated partition coefficient between octanol and water

SMILES | Log P @25° C.
CC1CCC(C(C)C)C(OC(=O)c2ccccc2N)C1 (stereo not drawn) [Menthyl anthranilate, Menthyl-O-aminobenzoate] | 5.05
CCOC(=O)c1ccc(N(CC(C)O)CC(C)O)cc1 (stereo not drawn) [Ethyl dihydroxypropyl PABA, Ethyl-4-bis(2-hydroxypropyl-aminobenzoate)] | 2.84
CCOCCOC(=O)/C=C/c1ccc(OC)cc1 [Cinoxate, Ethoxyethyl methoxy cinnamate] | 2.55
